Laboratory results from ChEMBL document CHEMBL6121004, “Design, synthesis, and biological evaluation of Ponatinib-based N-Phenylpyrimidine-2-amine derivatives as novel fibroblast growth factor receptor 4 (FGFR4) selective inhibitors” (Eur J Med Chem, 2025).
The source made the active and inactive calls. No cut-off for these calls is given here.

How the values were obtained:
[1] = biological target: Fibroblast growth factor receptor 4 (Homo sapiens) (UniProt P22455); conditions: dose 100.0 nM
Description: Inhibition of FGFR4 (unknown origin) at 100 nM incubated for 15 mins in presence of ATP relative to control

Huh-7 [2] = assay: cells; conditions: Homo sapiens, Huh-7, 72 h
Description: Antiproliferative activity against human Huh-7 cells assessed as inhibition of cell proliferation incubated for 72 hrs by MTT assay

Hep 3B2 [3] = assay: cells; conditions: Homo sapiens, Hep3B, 72 h
Description: Antiproliferative activity against human Hep3B cells assessed as inhibition of cell proliferation incubated for 72 hrs by MTT assay

[4] = biological target: T1, Fibroblast growth factor receptor 1 (Homo sapiens, UniProt P11362); assay: Inhibition of FGFR1 (unknown origin) incubated for 15 mins in presence of ATP
Target sequence in this assay (P11362 whole entry): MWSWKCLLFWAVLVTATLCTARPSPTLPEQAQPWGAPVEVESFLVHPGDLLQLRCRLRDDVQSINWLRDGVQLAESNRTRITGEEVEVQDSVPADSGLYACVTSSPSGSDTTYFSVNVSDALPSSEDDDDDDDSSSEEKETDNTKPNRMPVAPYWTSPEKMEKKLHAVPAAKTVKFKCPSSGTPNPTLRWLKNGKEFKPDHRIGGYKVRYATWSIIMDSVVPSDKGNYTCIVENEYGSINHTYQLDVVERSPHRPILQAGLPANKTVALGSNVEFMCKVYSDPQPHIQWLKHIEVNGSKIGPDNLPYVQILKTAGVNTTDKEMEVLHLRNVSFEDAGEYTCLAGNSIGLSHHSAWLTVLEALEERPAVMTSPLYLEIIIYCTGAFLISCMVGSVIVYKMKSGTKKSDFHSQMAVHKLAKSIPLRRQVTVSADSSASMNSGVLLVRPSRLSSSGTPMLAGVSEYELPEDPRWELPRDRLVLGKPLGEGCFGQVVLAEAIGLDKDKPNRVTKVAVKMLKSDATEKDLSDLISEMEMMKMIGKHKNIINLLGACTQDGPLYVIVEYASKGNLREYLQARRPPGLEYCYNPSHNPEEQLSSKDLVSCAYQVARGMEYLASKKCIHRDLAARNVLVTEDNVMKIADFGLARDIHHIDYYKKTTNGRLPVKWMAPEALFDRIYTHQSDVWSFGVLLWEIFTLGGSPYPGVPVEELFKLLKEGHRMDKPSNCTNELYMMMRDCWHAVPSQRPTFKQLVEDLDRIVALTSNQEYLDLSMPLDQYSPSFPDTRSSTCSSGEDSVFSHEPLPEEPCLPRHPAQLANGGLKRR

MDA-MB-231 = assay: cells; conditions: Homo sapiens, MDA-MB-231, 72 h
Description: Antiproliferative activity against human MDA-MB-231 cells assessed as inhibition of cell proliferation incubated for 72 hrs by MTT assay

[5] = Antiproliferative activity against human L02 cells assessed as inhibition of cell proliferation incubated for 72 hrs by MTT assay; type: toxicity, cell-based
[6] = GSH reactivity in potassium phosphate buffer at pH 7.4 assessed as half life at 1 uM measured at 2 to 1440 mins by LC-MS/MS analysis; type: physicochemical; conditions: potassium phosphate buffer with GSH, time 2-1440 min
[7] = biological target: T1, Fibroblast growth factor receptor 1; conditions: dose 10.0 nM
Target sequence in this assay (P11362 22-822 limits assumed): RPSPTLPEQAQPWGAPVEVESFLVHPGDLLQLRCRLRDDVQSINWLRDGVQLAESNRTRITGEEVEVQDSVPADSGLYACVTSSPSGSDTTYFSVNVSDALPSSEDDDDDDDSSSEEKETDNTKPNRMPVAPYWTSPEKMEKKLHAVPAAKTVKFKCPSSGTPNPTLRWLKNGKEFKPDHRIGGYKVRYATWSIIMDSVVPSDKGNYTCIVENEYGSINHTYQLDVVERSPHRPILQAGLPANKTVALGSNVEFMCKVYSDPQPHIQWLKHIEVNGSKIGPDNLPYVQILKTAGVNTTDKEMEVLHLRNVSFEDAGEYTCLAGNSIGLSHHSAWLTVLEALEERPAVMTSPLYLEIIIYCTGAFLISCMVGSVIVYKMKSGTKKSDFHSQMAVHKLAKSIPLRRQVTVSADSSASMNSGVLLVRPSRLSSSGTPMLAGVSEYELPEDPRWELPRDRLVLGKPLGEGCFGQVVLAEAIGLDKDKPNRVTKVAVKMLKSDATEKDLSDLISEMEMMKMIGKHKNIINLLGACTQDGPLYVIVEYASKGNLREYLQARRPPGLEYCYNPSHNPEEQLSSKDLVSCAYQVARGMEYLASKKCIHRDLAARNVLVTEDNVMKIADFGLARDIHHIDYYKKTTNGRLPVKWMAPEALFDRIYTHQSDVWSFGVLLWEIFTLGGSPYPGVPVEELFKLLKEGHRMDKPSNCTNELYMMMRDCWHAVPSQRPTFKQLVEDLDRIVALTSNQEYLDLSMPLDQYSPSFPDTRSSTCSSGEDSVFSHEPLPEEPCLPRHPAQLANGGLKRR
Description: Inhibition of FGFR1 (unknown origin) at 10 nM incubated for 15 mins in presence of ATP relative to control

[8] = biological target: T1, Fibroblast growth factor receptor 1; conditions: dose 100.0 nM
Target sequence in this assay (P11362 22-822 limits assumed): as above
Description: Inhibition of FGFR1 (unknown origin) at 100 nM incubated for 15 mins in presence of ATP relative to control

Huh-7 [9] = assay: Antitumor activity against human Huh-7 cells xenografted in nude mouse assessed as tumor growth inhibition at 25 mg/kg, ip administered for 15 days; type: functional; conditions: Huh-7, 360 h, time 15 day, read-out: TGI
[10] = biological target: Fibroblast growth factor receptor 4 (Homo sapiens) (UniProt P22455); conditions: dose 10.0 nM
Description: Inhibition of FGFR4 (unknown origin) at 10 nM incubated for 15 mins in presence of ATP relative to control

Hep 3B2 [11] = assay: Induction of apoptosis in human Hep3B cells assessed as early apoptotic cells at 0.5 uM incubated for 48 hrs by annexin V-FITC/propidium iodide staining based flow cytometry analysis (reference value: 4.69%); type: functional
Huh-7 [12] = assay: Induction of apoptosis in human Huh-7 cells assessed as late apoptotic cells at 0.5 uM incubated for 48 hrs by annexin V-FITC/propidium iodide staining based flow cytometry analysis (reference value: 5.20%); type: functional
Hep 3B2 [13] = assay: Induction of apoptosis in human Hep3B cells assessed as viable cells at 0.5 uM incubated for 48 hrs by annexin V-FITC/propidium iodide staining based flow cytometry analysis (reference value: 84.91%); type: functional; conditions: read-out: Activity
Hep 3B2 [14] = assay: Induction of apoptosis in human Hep3B cells assessed as necrotic cells at 0.5 uM incubated for 48 hrs by annexin V-FITC/propidium iodide staining based flow cytometry analysis (reference value: 5.20%); type: functional
Huh-7 [15] = assay: Induction of apoptosis in human Huh-7 cells assessed as early apoptotic cells at 0.5 uM incubated for 48 hrs by annexin V-FITC/propidium iodide staining based flow cytometry analysis (reference value: 4.59%); type: functional
Huh-7 [16] = assay: Induction of apoptosis in human Huh-7 cells assessed as viable cells at 0.5 uM incubated for 48 hrs by annexin V-FITC/propidium iodide staining based flow cytometry analysis (reference value: 84.91%); type: functional; conditions: read-out: Activity
Hep 3B2 [17] = assay: Induction of apoptosis in human Hep3B cells assessed as late apoptotic cells at 0.5 uM incubated for 48 hrs by annexin V-FITC/propidium iodide staining based flow cytometry analysis (reference value: 5.20%); type: functional
Huh-7 [18] = assay: Induction of apoptosis in human Huh-7 cells assessed as necrotic cells at 0.5 uM incubated for 48 hrs by annexin V-FITC/propidium iodide staining based flow cytometry analysis (reference value: 5.20%); type: functional

Sequence of Fibroblast growth factor receptor 4 (Homo sapiens) (P22455 22-802 limits assumed): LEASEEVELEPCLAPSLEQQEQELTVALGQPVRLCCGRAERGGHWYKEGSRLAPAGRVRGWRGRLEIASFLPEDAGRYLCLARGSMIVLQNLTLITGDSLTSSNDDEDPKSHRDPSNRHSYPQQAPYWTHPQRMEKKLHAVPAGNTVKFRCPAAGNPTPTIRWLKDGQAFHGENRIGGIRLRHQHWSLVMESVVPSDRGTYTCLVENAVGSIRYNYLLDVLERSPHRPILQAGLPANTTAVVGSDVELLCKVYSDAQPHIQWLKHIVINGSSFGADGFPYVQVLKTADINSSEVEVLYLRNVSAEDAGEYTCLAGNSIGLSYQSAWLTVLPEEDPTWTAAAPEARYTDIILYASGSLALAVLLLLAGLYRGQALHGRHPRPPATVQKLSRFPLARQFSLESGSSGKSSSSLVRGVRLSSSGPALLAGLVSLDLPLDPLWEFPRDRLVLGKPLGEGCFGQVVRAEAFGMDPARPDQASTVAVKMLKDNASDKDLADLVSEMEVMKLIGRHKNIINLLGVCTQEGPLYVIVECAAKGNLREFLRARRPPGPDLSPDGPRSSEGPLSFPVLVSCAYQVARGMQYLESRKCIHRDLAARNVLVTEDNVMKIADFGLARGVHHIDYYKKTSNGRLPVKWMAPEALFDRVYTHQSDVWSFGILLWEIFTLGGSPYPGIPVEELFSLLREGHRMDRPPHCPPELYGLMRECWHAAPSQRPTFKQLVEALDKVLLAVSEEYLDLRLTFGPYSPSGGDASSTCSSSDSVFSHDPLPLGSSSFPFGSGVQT

Row | IC50 (Huh-7 [2]) | IC50 (Hep 3B2 [3]) | IC50 (MDA-MB-231) | inhibition [7] | inhibition [8] | Structure (SMILES) | IC50 at 72 h [5] | also measured
1 |  |  |  |  |  | CC(C)=CC(=O)Nc1cccc(C)c1Nc1ncc(C#Cc2cccc(C(=O)Nc3ccc(CN4CCN(C)CC4)c(C(F)(F)F)c3)c2)cn1 |  | inhibition [1]: < 10%
2 | 410 nM | 870 nM | 4010 nM |  |  | C=CC(=O)Nc1cccc(Cl)c1Nc1ncc(C#Cc2cc(C(=O)Nc3ccc(CN4CCN(C)CC4)c(C(F)(F)F)c3)ccc2C)cn1 | > 10000 nM | IC50 [4]: > 500 nM
3 |  |  |  |  |  | CN(C)C/C=C/C(=O)Nc1cc2c(Nc3ccc(F)c(Cl)c3)ncnc2cc1O[C@H]1CCOC1 [AFATINIB] |  | half-life at 1 µM [6]: 30.1 min
4 |  |  |  | inactive | inactive | C/C=C/C(=O)Nc1cccc(C)c1Nc1ncc(C#Cc2cc(C(=O)Nc3ccc(CN4CCN(C)CC4)c(C(F)(F)F)c3)ccc2C)cn1 |  | 
5 | 680 nM | 770 nM | 2240 nM |  |  | C=CC(=O)Nc1ccccc1Nc1ncc(C#Cc2cc(C(=O)Nc3ccc(CN4CCN(C)CC4)c(C(F)(F)F)c3)ccc2C)cn1 | > 10000 nM | 
6 | 1620 nM | 920 nM | 1250 nM |  |  | Cc1ccc(C(=O)Nc2ccc(CN3CCN(C)CC3)c(C(F)(F)F)c2)cc1C#Cc1cnc(Nc2c(C)cccc2NC(=O)/C=C/CN(C)C)nc1 | > 10000 nM | IC50 [4]: 863 nM
7 |  |  |  | 0.2% | inactive | Cc1ccc(C(=O)Nc2ccc(CN3CCN(C)CC3)c(C(F)(F)F)c2)cc1C#Cc1cnc(Nc2c(C)cccc2NC(=O)CCl)nc1 |  | 
8 | 490 nM | 810 nM | 4260 nM |  |  | C=CC(=O)Nc1cccc(C)c1Nc1ncc2cc(-c3c(Cl)c(OC)cc(OC)c3Cl)ccc2n1 | > 10000 nM | inhibition in vivo at 25 mg/kg (Huh-7 [9]): 61.8%; half-life at 1 µM [6]: 60.1 min; IC50 [4]: 559 nM
9 |  |  |  | 0.6% | inactive | Cc1ccc(C(=O)Nc2ccc(C(=O)N3CCN(C)CC3)c(C)c2)cc1C#Cc1cnc(Nc2c(C)cccc2NC(=O)/C=C/CN(C)C)nc1 |  | inhibition [1]: inactive; inhibition [10]: inactive
10 |  |  |  | 0.3% | inactive | C=CC(=O)Nc1cccc(C)c1Nc1ncc(C#Cc2ccc(C)c(C(=O)Nc3ccc(CN4CCN(C)CC4)c(C(F)(F)F)c3)c2)cn1 |  | 
11 | 1630 nM | 430 nM | 4330 nM |  |  | C=CC(=O)Nc1cccc(C)c1Nc1ncc(C#Cc2cc(C(=O)Nc3ccc(CN4CCN(C)CC4)c(C(F)(F)F)c3)ccc2C)cn1 | > 10000 nM | 
12 |  |  |  |  |  | Cc1ccc(C(=O)Nc2ccc(CN3CCN(C)CC3)c(C(F)(F)F)c2)cc1C#Cc1cnc2cccnn12 [PONATINIB] | 180 nM | Activity (Hep 3B2 [11]): 5.14%; Activity (Huh-7 [12]): 18.5%; viability at 0.5 µM (Hep 3B2 [13]): 68%; Activity (Hep 3B2 [14]): 6.56%; Activity (Huh-7 [15]): 2.74%; viability at 0.5 µM (Huh-7 [16]): 75.5%; Activity (Hep 3B2 [17]): 20.3%; Activity (Huh-7 [18]): 3.28%
13 |  |  |  | 2.2% | inactive | Cc1ccc(C(=O)Nc2ccc(C(=O)N3CCN(C)CC3)c(C(F)(F)F)c2)cc1C#Cc1cnc(Nc2c(C)cccc2NC(=O)/C=C/CN(C)C)nc1 |  | inhibition [1]: inactive; inhibition [10]: inactive
14 | 520 nM | 660 nM | 3530 nM |  |  | C=CC(=O)Nc1cccc(C)c1Nc1ccc(C#Cc2cc(C(=O)Nc3ccc(CN4CCN(C)CC4)c(C(F)(F)F)c3)ccc2C)cn1 | > 10000 nM | IC50 [4]: > 500 nM
